Reference: patent US12478689B2, “Anti-CD19 antibody drug conjugates” (AbbVie Biotherapeutics Inc., priority 2022, dated 2025)

Legend:
[1] = tested on: Farage, SU-DHL-6, OCI-LY19 cells; settings: GRM 100 nM, ADC-1 1 μM; all 3 cell lines
RS4;11 (ALL) = settings: read-out: EC50 in vitro cytotoxicity (% cell viability), 5-day compound treatment, FIG. 1
RS4;11 tumors = test: ALL subcutaneous xenograft in CB17/SCID mice; type: in vivo; settings: FIG. 11; fucosylated mAb and ADC-1 used; prednisolone [QD×5]×3; ADC-1 single low dose
Excerpt: Food and water were available ad libitum.
Intraperitoneal route of administration was used.
Tumor volume was estimated one to two times weekly.

SMILES	Apoptosis (BIM, cleaved caspase-3, cleaved PARP) [1]	EC50 (RS4;11 (ALL)) [nM]	Anti-tumor activity (RS4;11 tumors)
C[C@]12C=CC(=O)C=C1[C@@H](F)C[C@H]1[C@@H]3C[C@H]4O[C@@H](c5ccc(Cc6cccc(N)c6)cc5)O[C@@]4(C(=O)CO)[C@@]3(C)C[C@H](O)[C@@]12F [Compound of Formula IV, (2S,6aS,6bR,7S,8aS,8bS,10R,11aR,12aS,12bS)-10-(4-(3-Aminobenzyl)phenyl)-2,6b-difluoro-7-hydroxy-8b-(2-hydroxyacetyl)-6a,8a-dimethyl-1,2,6a,6b,7,8,8a,8b,11a,12,12a,12b-dodecahydro-4H-naphtho[2′,1′:4,5]indeno[1,2-d][1,3]dioxol-4-one]	induced apoptosis	–	–
C[C@@H]1C[C@H]2[C@@H]3CCC4=CC(=O)C=C[C@]4(C)[C@@]3(F)[C@@H](O)C[C@]2(C)[C@@]1(O)C(=O)CO [dexamethasone]	–	3.28	–
C[C@]12C=CC(=O)C=C1CC[C@@H]1[C@@H]2[C@@H](O)C[C@@]2(C)[C@H]1CC[C@]2(O)C(=O)CO [prednisolone, reference compound]	–	82.9	modest anti-tumor activity
